Results on 1 compound are retold here after ChEMBL document CHEMBL5625204, “Synthesis and pharmacodynamic evaluation of naphthalene derivatives against influenza A virus in vitro and in vivo” (Eur J Med Chem, 2023).

For data set [1], the system named is Influenza A virus. Put plainly: Antiviral activity against Influenza A virus H1N1 infected in dog MDCK cells assessed as decrease in apoptosis by measuring proportion of necrotic cells at 50 uM measured after 72 hrs by AnnexinV-FITC/PI staining based flow cytometry (reference value: 2.47%). In kind it is functional. Further details: scale not given: the % may be the effect or the level left.

Data set [2] deals with Influenza A virus. The data set can be described thus: Antiviral activity against Influenza A virus H1N1 infected in dog MDCK cells assessed as decrease in apoptosis by measuring proportion of late apoptotic cells at 50 uM measured after 72 hrs by AnnexinV-FITC/PI staining based flow cytometry (reference value: 10.3%). Format: functional. Further details: scale not given: the % may be the effect or the level left.

The nature of data set [3]: Cytotoxicity against dog MDCK cells assessed as reduction in cell viability incubated for 72 hrs by MTT assay. In kind it is toxicity, cell-based, Canis lupus familiaris.
Data set [4] relates to Influenza A virus. Put plainly: Antiviral activity against Influenza A virus H1N1 infected in dog MDCK cells assessed as decrease in apoptosis by measuring proportion of early apoptotic cells at 50 uM measured after 72 hrs by AnnexinV-FITC/PI staining based flow cytometry (reference value: 24.3%). The arrangement: scale not given: the % may be the effect or the level left. In kind it is functional.

Data set [5] has as its system Influenza A virus. The data set can be described thus: Antiviral activity against Influenza A virus H1N1 (A/Virginia/ATCC2/2009) infected in MDCK cells assessed as reduction of viral replication incubated for 72 hrs by TCID50 method. In kind it is functional, organism-based.
For data set [6], the system named is Influenza A virus. The data set can be described thus: Antiviral activity against Influenza A virus H1N1 (A/Weiss/43)-infected in dog MDCK cells assessed as reduction in oxidative stress by measuring proportion of cells with excessive ROS accumulation at 50 uM treated at 2 hrs post-infection and measured after 36 hrs by DCFH-DA staining based flow cytometry (reference value: 30.6%). Further details: scale not given: the % may be the effect or the level left. Format: functional.

The nature of data set [7]: Selectivity index, ratio of CC50 for dog MDCK cells to EC50 for antiviral activity against Influenza A virus H1N1 (A/Virginia/ATCC2/2009) infected in MDCK cells. Format: toxicity, cell-based. The conditions noted are these: read-out: Ratio CC50/EC50.
The subject of data set [8] is Influenza A virus. The data set can be described thus: Antiviral activity against Influenza A virus H3N2 (A/California/2004) infected in MDCK cells assessed as reduction of viral replication incubated for 72 hrs by TCID50 method. In kind it is functional, organism-based.
The subject of data set [9] is Influenza A virus. The data set can be described thus: Antiviral activity against Influenza A virus H1N1 (A/Weiss/43) infected in MDCK cells assessed as reduction of viral replication treated for 72 hrs after viral adsorption by TCID50 method. Format: functional, organism-based.
Data set [10] relates to Influenza A virus. The data set can be described thus: Antiviral activity against Influenza A virus H1N1 (A/Weiss/43)-infected in BALB/c mouse assessed as reduction in pulmonary inflammation at 50 mg/kg/day administered intranasally for 6 days starting from 3 hrs post-viral infection by Hematoxylin-Eosin staining based analysis. Format: functional, organism-based. Conditions: route nas, time 6.0 day.

In data set [11] the test system is Influenza A virus. Put plainly: Antiviral activity against Influenza A virus H1N1 (A/Weiss/43)-infected in dog MDCK cells assessed as reduction in oxidative stress by measuring proportion of normal cells at 50 uM treated at 2 hrs post-infection and measured after 36 hrs by DCFH-DA staining based flow cytometry (reference value: 69.4%). In kind it is functional. The arrangement: scale not given: the % may be the effect or the level left.

For data set [12], the system named is Influenza A virus. The data set can be described thus: Antiviral activity against Influenza A virus H1N1 infected in dog MDCK cells assessed as decrease in apoptosis by measuring proportion of viable cells at 50 uM measured after 72 hrs by AnnexinV-FITC/PI staining based flow cytometry (reference value: 62.9%). In kind it is functional.
The nature of data set [13]: Selectivity index, ratio of CC50 for dog MDCK cells to EC50 for antiviral activity against Influenza A virus H1N1 (A/Weiss/43) infected in MDCK cells treated for 72 hrs after viral adsorption. Format: toxicity, cell-based. The conditions noted are these: read-out: Ratio CC50/EC50.
Data set [14] can be described thus: Selectivity index, ratio of CC50 for dog MDCK cells to EC50 for antiviral activity against Influenza A virus H3N2 (A/California/2004) infected in MDCK cells. The conditions noted are these: read-out: Ratio CC50/EC50. In kind it is toxicity, cell-based.
Data set [15] deals with Influenza A virus. Put plainly: Antiviral activity against Influenza A virus H1N1 (A/Weiss/43)-infected in BALB/c mouse assessed as reduction in lung index at 50 mg/kg/day administered intranasally for 6 days starting from 3 hrs post-viral infection. Format: functional. The conditions noted are these: 144 h, route nas, time 6 day.

Active and inactive are the calls of the source. The calls are words filed in the database; no cut-off is given here.

`NC(=O)c1ncn([C@@H]2O[C@H](CO)[C@@H](O)[C@H]2O)n1` [RIBAVIRIN]: the Activity in [1] is 1.56%; in data set [2] it was 2.43%; in data set [4], 2.76%; in data set [6] it was 7.48%; in data set [11], 92.5%; in data set [12], 93.2%. For the same compound, the CC50 at 72 h in data set [3] amounted to 707 µM. The EC50 in data set [5] is 18.5 µM; in [8], 24.8 µM; in data set [9], 13 µM. Moreover, the selectivity ratio in data set [7] came out at 38.3; in data set [14] it was 28.5. For the same compound, the outcome in data set [10] was Active. The selectivity ratio at 72 h in data set [13] was determined as 54.4. The inhibition in vivo at 50 mg/kg/day in [15] worked out at 40%.
